Values quoted from earlier work as cited in patent US20060068011A1, “Simultaneous encapsulation technique for use in pharmaceutical compositions” (Wyeth, priority 2004, published 2006).

Structure (SMILES): COc1ccccc1OCC(O)CO (stereo not shown) [Guaifenesin, guaifenesin]
- solubility in water: sparingly water soluble
